Assay results as given in ChEMBL document CHEMBL1124261 (J Med Chem, 1988).

Key:
Dihydrofolate reductase = target: T1, Dihydrofolate reductase (Mus musculus, UniProt P00375); assay: biochemical
T1 sequence (P00375 whole entry): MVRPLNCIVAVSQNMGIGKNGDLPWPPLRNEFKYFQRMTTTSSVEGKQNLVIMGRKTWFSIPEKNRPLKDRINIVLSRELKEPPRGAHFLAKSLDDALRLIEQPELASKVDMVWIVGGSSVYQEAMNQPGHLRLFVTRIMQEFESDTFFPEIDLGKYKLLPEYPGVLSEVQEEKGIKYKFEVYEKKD
Description: Tested for inhibition against purified Dihydrofolate reductase from L1210 murine leukemia cells

L1210 [1] = assay: Range for the survival of mice infected with L1210 leukemia after an intraperitoneal dose of 40 mg/kg for 9 days; Range is 13-23; assay type: functional, Mus musculus
L1210 [2] = assay: Increase in life span of mice infected with L1210 leukemia after an intraperitoneal dose of 60 mg/kg for 9 days; assay type: functional; conditions: Mus musculus, L1210, ip, 216 h
Mus musculus = species on record: Mus musculus; assay: (§1) Tested for inhibition against purified Folyl-polyglutamate synthase from mouse liver; conditions: concentration not given here
L1210 [3] = assay: Increase in life span of mice infected with L1210 leukemia after an intraperitoneal dose of 40 mg/kg for 9 days; assay type: functional; conditions: Mus musculus, L1210, ip, 216 h
L1210 [4] = assay: Mean survival of mice infected with L1210 leukemia after an intraperitoneal dose of 40 mg/kg for 9 days; assay type: functional, Mus musculus
CCRF-CEM [5] = assay: Tested for cell-growth inhibition against human leukemic lymphoblast CEM/MTX cells; assay type: functional, cell-based
L1210 [6] = assay: Mean change in weight of mice infected with L1210 leukemia after 7 days after an intraperitoneal dose of 40 mg/kg; assay type: functional, Mus musculus
L1210 [7] = assay: Mean survival of mice infected with L1210 leukemia after an intraperitoneal dose of 80 mg/kg for 9 days; assay type: functional, Mus musculus
L1210 [8] = assay: Range for the survival of mice infected with L1210 leukemia after an intraperitoneal dose of 20 mg/kg for 9 days; Range is 15-16; assay type: functional, Mus musculus
L1210 [9] = assay: Mean change in weight of mice infected with L1210 leukemia after 7 days after an intraperitoneal dose of 60 mg/kg; assay type: functional, Mus musculus
L1210 [10] = assay: Mean survival of mice infected with L1210 leukemia after an intraperitoneal dose of 60 mg/kg for 9 days; assay type: functional, Mus musculus
L1210 [11] = assay: Range for the survival of mice infected with L1210 leukemia after an intraperitoneal dose of 60 mg/kg for 9 days; Range is 10-18; assay type: functional, Mus musculus
L1210 [12] = assay: Tested for cell-growth inhibition against mouse leukemic L1210 cells; assay type: functional, cell-based
L1210 [13] = assay: Mean change in weight of mice infected with L1210 leukemia after 7 days after an intraperitoneal dose of 80 mg/kg; assay type: functional, Mus musculus
L1210 [14] = assay: Range for the survival of mice infected with L1210 leukemia after an intraperitoneal dose of 80 mg/kg for 9 days; Range is 9-23; assay type: functional, Mus musculus
L1210 [15] = assay: Mean survival of mice infected with L1210 leukemia after an intraperitoneal dose of 20 mg/kg for 9 days; assay type: functional, Mus musculus
CCRF-CEM [16] = assay: Tested for cell-growth inhibition against human leukemic lymphoblast CEM cells; assay type: functional, cell-based
L1210 [17] = assay: Increase in life span of mice infected with L1210 leukemia after an intraperitoneal dose of 80 mg/kg for 9 days; assay type: functional; conditions: Mus musculus, L1210, ip, 216 h
L1210 ( R81) = assay: Tested for cell-growth inhibition against mouse leukemic L1210/R81 cells; assay type: functional, cell-based
L1210 [18] = assay: Mean change in weight of mice infected with L1210 leukemia after 7 days after an intraperitoneal dose of 20 mg/kg; assay type: functional, Mus musculus
L1210 [19] = assay: Increase in life span of mice infected with L1210 leukemia after an intraperitoneal dose of 20 mg/kg for 9 days; assay type: functional; conditions: Mus musculus, L1210, ip, 216 h
[20] = target: T2, Folylpolyglutamate synthase, mitochondrial (Mus musculus, UniProt P48760); assay: Inhibitory constant against purified Folyl-polyglutamate synthase obtained from mouse
T2 sequence (P48760 whole entry): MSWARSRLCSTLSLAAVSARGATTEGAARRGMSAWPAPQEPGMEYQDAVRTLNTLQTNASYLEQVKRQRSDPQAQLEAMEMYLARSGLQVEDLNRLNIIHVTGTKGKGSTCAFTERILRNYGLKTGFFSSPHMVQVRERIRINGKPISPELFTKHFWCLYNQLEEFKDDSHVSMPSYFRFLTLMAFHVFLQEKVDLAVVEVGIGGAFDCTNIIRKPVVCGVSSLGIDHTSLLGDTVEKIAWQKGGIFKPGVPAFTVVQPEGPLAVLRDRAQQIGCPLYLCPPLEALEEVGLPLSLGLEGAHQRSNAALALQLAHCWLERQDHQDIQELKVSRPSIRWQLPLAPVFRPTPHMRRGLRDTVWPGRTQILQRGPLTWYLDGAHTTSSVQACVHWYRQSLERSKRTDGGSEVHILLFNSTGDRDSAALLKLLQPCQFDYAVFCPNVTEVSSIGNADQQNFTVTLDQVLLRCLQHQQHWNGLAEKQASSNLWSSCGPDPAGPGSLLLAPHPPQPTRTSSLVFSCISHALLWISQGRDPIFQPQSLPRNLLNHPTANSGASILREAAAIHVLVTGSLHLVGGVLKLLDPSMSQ

[21] = target: T3, Folylpolyglutamate synthase, mitochondrial (Homo sapiens, UniProt Q05932); assay: Inhibitory constant against purified Folyl-polyglutamate synthase obtained from human
T3 sequence (Q05932 whole entry): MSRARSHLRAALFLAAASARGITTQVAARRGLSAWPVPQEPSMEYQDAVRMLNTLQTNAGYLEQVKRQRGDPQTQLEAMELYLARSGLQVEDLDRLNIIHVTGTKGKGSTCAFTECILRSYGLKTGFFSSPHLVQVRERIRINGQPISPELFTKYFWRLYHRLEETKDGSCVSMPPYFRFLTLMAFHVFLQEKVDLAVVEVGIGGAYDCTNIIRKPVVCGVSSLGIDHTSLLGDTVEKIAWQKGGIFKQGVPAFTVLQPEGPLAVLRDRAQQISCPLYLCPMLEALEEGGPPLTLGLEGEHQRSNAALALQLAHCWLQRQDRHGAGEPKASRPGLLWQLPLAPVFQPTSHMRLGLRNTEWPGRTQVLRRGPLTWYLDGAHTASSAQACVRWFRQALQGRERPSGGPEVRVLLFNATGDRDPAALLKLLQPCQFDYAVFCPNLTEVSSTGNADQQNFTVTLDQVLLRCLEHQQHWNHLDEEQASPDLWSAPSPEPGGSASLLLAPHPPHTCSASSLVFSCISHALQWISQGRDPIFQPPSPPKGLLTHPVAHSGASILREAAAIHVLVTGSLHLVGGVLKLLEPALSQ

L1210 [22] = assay: Range for the survival of mice infected with L1210 leukemia after an intraperitoneal dose of 60 mg/kg for 9 days; Range is 12-19; assay type: functional, Mus musculus
L1210 [23] = assay: Range for the survival of mice infected with L1210 leukemia after an intraperitoneal dose of 40 mg/kg for 9 days; Range is 14-16; assay type: functional, Mus musculus
[24] = target: T4, Folylpolyglutamate synthase, mitochondrial (Mus musculus) (UniProt P48760); assay: as §1; assay type: functional; conditions: concentration not given here
T4 sequence (whole entry): T2 sequence (P48760 whole entry)

L1210 [25] = assay: Range for the survival of mice infected with L1210 leukemia after an intraperitoneal dose of 80 mg/kg for 9 days; Range is 12-18; assay type: functional, Mus musculus
L1210 [26] = assay: Range for the survival of mice infected with L1210 leukemia after an intraperitoneal dose of 20 mg/kg for 9 days; Range is 13-14; assay type: functional, Mus musculus

Row | Structure (SMILES) | IC50 (Dihydrofolate reductase) [nM] | ILS at 60 mg/kg (L1210 [2]) [%] | ILS at 40 mg/kg (L1210 [3]) [%] | Survival (L1210 [4]) [days] | IC50 (CCRF-CEM [5]) [nM] | Weight change (L1210 [6]) [%] | Survival (L1210 [7]) [days] | Weight change (L1210 [9]) [%] | Survival (L1210 [10]) [days] | IC50 (L1210 [12]) [nM] | Weight change (L1210 [13]) [%] | Survival (L1210 [15]) [days] | IC50 (CCRF-CEM [16]) [nM] | ILS at 80 mg/kg (L1210 [17]) [%] | IC50 (L1210 ( R81)) [nM] | Weight change (L1210 [18]) [%] | ILS at 20 mg/kg (L1210 [19]) [%] | also measured
1 | Nc1nc(N)c2nc(CNc3ccc(C(=O)N[C@@H](CCC(=O)O)C(=O)O)cc3)cnc2n1 [AMINOPTERIN] | 25 |  |  |  |  |  |  |  |  |  |  |  |  |  |  |  |  | 
2 | CN(Cc1cnc2nc(N)nc(N)c2n1)c1ccc(C(=O)NC(CCCCCCCCC(=O)O)C(=O)O)cc1 (configuration not stated) | 29 | 70 | 92 | 16.9 | 2200 | 2 | 15.2 | 4 | 15 | 3.1 | -5 | 15.2 | 56 | 73 | 78000 | 5 | 73 | Range (L1210 [1]): 13 days; inhibition (Mus musculus): 49%; Range (L1210 [8]): 15 days; Range (L1210 [11]): 10 days; Range (L1210 [14]): 9 days
3 | NCCC[C@H](NC(=O)c1ccc(NCc2cnc3nc(N)nc(N)c3n2)cc1)C(=O)O |  |  |  |  |  |  |  |  |  |  |  |  |  |  |  |  |  | Ki [20]: 300 nM; Ki [21]: 300 nM
4 | CN(Cc1cnc2nc(N)nc(N)c2n1)c1ccc(C(=O)NC(CCCCCCCC(=O)O)C(=O)O)cc1 (configuration not stated) | 32 | 74 | 66 | 14.6 | 1000 | 6 | 15.2 | 6 | 15.3 | 4.2 | 3 | 13.6 | 62 | 73 | 73000 | 7 | 55 | Range (L1210 [22]): 12 days; Range (L1210 [23]): 14 days; inhibition [24]: 43%; Range (L1210 [25]): 12 days; Range (L1210 [26]): 13 days
